Reference: patent US20240226225A1 (Protagonist Therapeutics, Inc., priority 2021, published 2024)
pEC50, pIC50: −log10 of the molar value. Blank lines part the entries; values can stand above or below the compound they belong to. Starred links: 1 amine or outer side, 2 acyl side, 3 side chain; linkers in the order of their positions; H or OH if unused. Positions of bridges follow the written chain, without caps; N, C: chain ends. Non-standard residues stand in square brackets, D forms with d. Residues, ends and D or L forms follow the SMILES beside them. Groups on a side chain read outwards from the residue. *: point of attachment. Ala(1H-tetrazol-5-yl) = N[C@@H](Cc1nnn[nH]1)C(=O)O; C18 diacid = O=C(O)CCCCCCCCCCCCCCCCC(=O)*; Dip = N[C@H](C(=O)O)C(c1ccccc1)c1ccccc1; γGlu = O=C(O)[C@H](CCC(=O)[*:2])N[*:1]; β3hF = N[C@H](CC(=O)O)Cc1ccccc1; AEEA = NCCOCCOCC(=O)O; X4 = O=C(CCC(F)(F)F)*

Tests used:
[1] = tested on: ferroportin fused to green fluorescent protein; conditions: read-out: EC50 (50% of the maximal loss of fluorescence); cells incubated for 24 hours with graded concentrations; cited from earlier work
[2] = target: human ferroportin (SLC40A1) fused in frame with GFP, stably expressed in HEK293 cells (human) (UniProt Q9NP59); experiment: cell-based or functional assay
ferroportin [3] = target: T1, ferroportin (Homo sapiens, UniProt Q9NP59); experiment: T47D cell-based ferroportin internalization assay in presence of 0.5% mouse serum albumin (MSA), AF647-conjugated detection peptide, flow cytometry; parameters: a human breast carcinoma adherent cell line which endogenously expresses ferroportin; host or cells: T47D; conditions: T47D cells, 1 hr incubation
T1 sequence (Q9NP59 1-571): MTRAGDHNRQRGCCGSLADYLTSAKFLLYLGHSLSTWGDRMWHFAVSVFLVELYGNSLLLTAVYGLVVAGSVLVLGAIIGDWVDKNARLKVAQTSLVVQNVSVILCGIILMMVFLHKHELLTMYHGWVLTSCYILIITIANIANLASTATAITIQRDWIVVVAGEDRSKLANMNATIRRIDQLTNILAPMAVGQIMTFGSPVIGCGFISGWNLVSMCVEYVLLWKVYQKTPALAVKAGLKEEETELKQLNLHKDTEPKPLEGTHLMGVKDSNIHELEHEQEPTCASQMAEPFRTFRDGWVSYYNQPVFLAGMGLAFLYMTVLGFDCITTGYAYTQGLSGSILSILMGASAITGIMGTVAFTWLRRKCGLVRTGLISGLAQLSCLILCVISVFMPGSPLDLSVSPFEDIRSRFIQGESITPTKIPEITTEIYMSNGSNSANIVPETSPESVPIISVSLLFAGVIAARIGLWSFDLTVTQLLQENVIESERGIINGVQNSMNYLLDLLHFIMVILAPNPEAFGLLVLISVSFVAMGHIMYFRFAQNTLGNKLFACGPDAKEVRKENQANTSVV
Method: The potency of the peptides in causing ferroportin internalization was evaluated in a T47D cell-based assay. […] In this internalization assay, the potency of the test peptides was evaluated in presence of serum albumin which is the main protein component in the blood. T47D cells were maintained in RPMI media (containing required amount of fetal bovine serum) and regularly sub-cultured. In preparation for the assay, the cells were seeded in 96-well plates at a density of 80-100 k cells per well in 100 ul volume and allowed to rest overnight. On the next day, test peptides were first prepared in dilution series (10-point series, starting concentration of ˜5 μM, typically 3-4×fold dilution steps), all with 0.5% mouse serum albumin (MSA purified from mouse serum; Sigma, A3139). The test peptide dilution series were allowed to incubate at room temperature for 30 min. Then the media was aspirated from the 96-well cell plate and test peptide dilution series were added. After 1 hr incubation, the media with test peptides was aspirated out and AF647-conjugated detection peptide was added at fixed concentration of 200 nM. The AF647-conjugated detection peptide was previously verified to bind to ferroportin and cause its internalization. The cells were washed again after a 2 hr incubation in preparation for flow cytometry analysis. The Median Fluorescence Intensity (MFI) of the AF647-positive population was measured (after removing dead cells and non-singlets from the analysis). The MFI values were used to generate a dose-response curve and obtain IC50 potencies for the test peptides. The IC50 potencies were calculated by using 4-parameter non-linear fitting function in Graphpad Prism (Table 2A).

ferroportin [4] = target: T1, ferroportin; experiment: FPN activity assay: internalization/degradation of ferroportin-GFP in stably transfected HEK293 cells, decrease in GFP fluorescence; assay type: cell-based; parameters: expressed in transfected cells; conditions: HEK293 cells stably expressing ferroportin-GFP, at least 18 hours incubation; read-out: FPN EC50

Compound: Hy-DTHFPIC(1)IFC(2)C(3)GC(2)C(4)HRSKC(3)GMC(4)C(1)KT-OH [Hepcidin]
pEC50 [1]: 7.82 to 8.30

Potency EC50 (nM), FPN activity assay (ferroportin-GFP internalization/degradation, HEK293 cells) [2]: > 10000 nM
Compound: RI-Mini Hepcidin, Hy-DPhe-DIle-DCys-DIle-DPro-DPhe-DHis-DThr-DAsp-NH2 (peptide)

Potency EC50 (nM), FPN activity assay (ferroportin-GFP internalization/degradation, HEK293 cells) [2]: 712 nM
Compound: Mini-Hepcidin 1-9, Hy-…-NH2 (peptide)

pIC50 (ferroportin [3]): 6.30 to 7.00
DC50 (ferroportin [4]): 10 to 100 nM
Compound: CC[C@H](C)[C@@H]1NC(=O)[C@@H](NC(=O)[C@@H]2CCCN2C(=O)[C@@H](NC(=O)[C@H](Cc2c[nH]cn2)NC(=O)[C@@H](NC(=O)[C@H](Cc2nn[nH]n2)NC(=O)CCC(F)(F)F)[C@@H](C)O)C(c2ccccc2)c2ccccc2)CSSC[C@@H](C(N)=O)NC(=O)[C@@H](CCCCN)NC(=O)C[C@H](Cc2ccccc2)NC(=O)[C@H](CCCCNC(=O)COCCOCCNC(=O)COCCOCCNC(=O)CC[C@H](NC(=O)CCCCCCCCCCCCCCCCC(=O)O)C(=O)O)NC1=O [Compd 47, TriF_Butyric_Acid-[Tet1]-T-H-[Dpa]-P-[Cys]-I-[Lys(1PEG2_1PEG2_IsoGlu_C18_Diacid)]-[bhPhe]-[(D)Lys]-[Cys]-NH2] (X4-[Ala(1H-tetrazol-5-yl)]TH[Dip]PCIK([AEEA-AEEA-γGlu-C18 diacid])[β3hF][dK]C-NH2; disulfide 6-11)
